Legend:
TNFα = TNFα content in aqueous humor (ELISA), ET-1 induced ischemia; format: in vivo, rabbit; conditions: ET-1 treated rabbits; 0.5 mg (equivalent)/eye IVT
Protocol: (§1) Aqueous humor samples were withdrawn from both anterior and posterior chamber fluids of each eye before ET-1 administration (T0), before the administration of Compound (1) or fluorocinolone acetonide (T2), and at the end of treatments (T6). The same volume of saline were reintroduced every time. The aqueous humor samples were immediately frozen at −80° C. until use.
(§2) Tumor necrosis factor (TNFα) and interleukin 6 (IL-6) were determined in aqueous humor with a commercial kit using an ELISA method (Amersham Pharmacia Biotech). The minimum detectable concentrations were 0.10 pg/ml for IL-6 and TNFα. The interassay coefficient of variation was 0.7% for all assays.

[1] = system: New Zealand White rabbits; test: Intraocular pressure in endothelin-1 (ET-1) induced ischemia
Protocol: Twenty adult male New Zealand Albino rabbits weighing 2-2.5 Kg were used for the experiments. The animals were divided in two groups for the specific treatment chosen. […] The rabbits were kept in individual cages, food and water was provided ad libitum. The animals were maintained on a 12-12 h light/dark cycle in a temperature controlled room (22°-23° C.).
Ischemia model of optic injury was obtained throughout by injection, twice a week, for 6 weeks, of endothelin-1 (ET-1) 250 nM, 500 μl of sterile saline, into the posterior vitreous body of both eyes, using a lachrymal cannula, under general anesthesia produced by tiletamine plus zolazepam (Zoletil 100, 0.05 mg/kg) plus xilazine (Xilor 2%, 0.05 ml/kg) i.m.
Fluocinolone acetonide (FC) (0.5 mg/eye in 100 μl of vehicle) or Compound (1) (0.5 mg equivalent/eye in 100 μl of vehicle) were instilled intravitreally (IVT) two weeks after the start of ET-1 treatment (T2), in one eyes, the same volume of vehicle was instilled in the other eye.
Intraocular pressure (TOP) was measured twice a using a Tono-Pen XL (Medtronic Solan. USA) as described by Maren's group (Exp. Eye Res. (1992) 55: 73-79; Exp. Eye Res. (1993) 57: 67-78) with a two-point standard pressure measurement.

IL-6 = IL-6 content in aqueous humor (ELISA), ET-1 induced ischemia; format: in vivo, rabbit; conditions: ET-1 treated rabbits; 0.5 mg (equivalent)/eye IVT
Protocol: as §1, §2

VEGF = VEGF content in aqueous humor, ET-1 induced ischemia; format: in vivo, rabbit; conditions: ET-1 treated rabbits; 0.5 mg (equivalent)/eye IVT
retinal tissue = test: Retina protection: morphological analysis, ET-1 induced ischemia; format: in vivo, rabbit; conditions: long term ET-1 treatment; 0.5 mg (equivalent)/eye IVT
Protocol: The eyes of each animal was enucleated, cornea and crystalline were removed and the eyes was paraformaldehyde-fixed. Then samples were dehydrated with increasing alcohol concentration (50°-75°-95°-100°). After 95° alcohol treatment, the eyes were divided into two parts following a longitudinal plain from cornea to insertion of optical nerve. Thus the samples were paraffin-embedded. Section 8 μm thick were stained with Haematoxylin-Eosin. Microscopical fields were registered by digitizing camera applied a light microscope with a 20× and 40× objective. On the digitized images was performed a morphological analysis of retinal tissue.

ophthalmic artery = test: Ocular haemodynamics (Color Doppler Imaging, Pourcelot Resistance Index) in ET-1 induced ischemia; format: in vivo, rabbit
Protocol: Haemodynamic evaluations were performed using an eco-color-doppler DynaView TM II SSD-1700 (Aloka Holding Europe AG, Milan, Italy). All animals underwent Color Doppler Imaging (CDI) investigation before ET-1 injection (T0), before the start of drug instillation (T2) and at the end of the drug treatment (T6). Special attention was devoted to the evaluation of ophthalmic and ciliary artery circulation. Blood flow velocities were measured for each vessel and the Pourcelot Resistance Index (RI) was calculated (Galassi F. et al., Acta Opht. Scand Suppl. (2000) 37-38).

[2] = system: VEGF-induced leakage rat model; test: VEGF-induced retinal vascular leakage rat model (Evans blue); format: in vivo; conditions: 25 μg/eye intravitreal, VEGF 100 ng/eye, 18 hours after injection
Protocol: Pupils were dilated with 1% topical cyclopentolate hydrochloride to see the needle to guide the intravitreal injection. Recombinant rat vascular endothelial growth factor (VEGF; 100 ng/eye) or VEGF at 100 ng/eye plus test compounds were prepared in 0.5% carboxymethyl cellulose (CMC) in sterile saline and was injected into the vitreous with a 30-gauge needle (Xu, Q., et al. Invest. Ophthalmol. Vis. Sci., 42:789-794, 2001). The compounds of the invention were compared to corresponding steroid cores at equimolar doses. […] Control animals received vehicle. Compound (18) was similarly dosed alongside triamcinolone acetonide for comparison.
Retinal vascular leakage was measured as described previously (Xu, Q., et al. Invest. Ophthalmol. Vis. Sci., 42:789-794, 2001). After about 18 hours post injection of test compounds, rats were anesthetized with ketamine (80 mg/kg) and xylazine (4 mg/kg) IP. Then 45 mg/kg Evans blue (EB) was injected into the jugular vein. The dye was allowed to circulate for 2 hours. The chest cavity was opened and rats then perfused with 1% formalin in 0.5 M citrate buffer (pH 3.5, 37° C.) through the left ventricle. Retinas were carefully dissected from enucleated eyes, placed in pre-weighed Eppendorf tubes, dried in speed vacuum overnight and dry weights recorded. Evans blue was extracted by incubating each retina in 120 μl formamide for 18 hours at 70° C., centrifuged for 2 hours at 6000 rpm. Absorbance of 60 μl of extract was measured at 620 nm and background absorbance was determined at 740 nm. Net absorbance was calculated by subtracting the background 740 nm from that at 620 nm. Measurement of a standard curve of Evans blue in formamide was also done and Evans blue leakage expressed as μl/g/h was calculated as shown below: [EB(ng/ml)×120 (μl)×1000]/[dry weight retina (mg)×circulation time (h)×plasma EB(ng/ml)×100]

Brown Norway rats = test: Steroid-induced intraocular pressure (IOP) elevation in rats after intravitreal injection; conditions: for IOP increase: one week after injection, baseline 18 mm Hg
Description: Male Brown Norway rats (250-275 g; Charles River laboratory) were acclimated for a week before IOP measurements. Baseline IOP measurements with Tonolab Tonometer (Tiolat Inc) were done in conscious rats (Pease, M. E., et al J. Glaucoma, 15:512-519, 2006) before intravitreal injection of test compounds. Then the rats were anesthetized with isoflurane inhalation and a drop of 0.5% tetracaine was topically applied on the eyes. Pupils were dilated with 1% topical cyclopentolate hydrochloride and 2.5% phenylephrine HCl to see the needle to aim the intravitreal injection of test compounds. […] For example, to compare to fluocinolone acetonide at both 25 and 50 μg/eye, compound (1) was dosed at 42.4 and 84.7 μg/eye, respectively. The des-nitro analog of compound (1) was dosed at 39.1 μg/eye (equivalent for 25 μg FC). Control animals received vehicle.
Five measurements were averaged for each time point. IOP measurements were taken at one and two weeks after intravitreal injection of test compounds.

[3] = system: isolated rabbit thoracic aorta preparations; test: Assay on vascular tone (vasorelaxation of methoxamine-precontracted aortic rings); conditions: rabbit aortic rings precontracted with methoxamine 3 μM
Protocol: The ability of the compounds of the invention to induce vasorelaxation in comparison to precursor compounds was tested in vitro in isolated rabbit thoracic aorta preparations (Wanstall J. C. et al., Br. J. Pharmacol., 134:463-472, 2001). Male New Zealand rabbits (1,8-2 Kg) were used. The animals were anaesthetized with sodium thiopental (50 mg/kg, iv), sacrificed by exsanguinations and then the thorax was opened and the aorta dissected. The aortas were placed immediately in Krebs-HEPES buffer (pH 7.4; composition mM: NaCl 130.0, Kcl 3.7, […] 14.9, KH2PO4 1.2, MgSO4.7H2O 1.2, Glucose 11.0, HEPES 10.0, CaCl2.2H2O 1.6) and cut into ring segments (4-5 mm in length). Each ring was placed in a 5 ml tissue bath filled with Krebs-HEPES buffer (37° C.) aerated with 95% O2 and 5% CO2 and was then attached to a force transducer (Grass FT03), connected to a BIOPAC MP150 System for measurement of the isometric tension^2. The preparations were allowed to equilibrate for 1 h at a resting tension of 2 g with changes of the buffer every 15 minutes and then stimulated by exposure to 90 mM KCl (3 times) with intervening washings. After equilibration, the rings were precontracted submaximally with methoxamine (3 μM) and, when the contraction reach a steady state a cumulative concentration-response curve to the test compounds was obtained. The time intervals between doses were based on the time needed to reach a full a steady state response.
Responses to test compounds were expressed as a percentage of residual contraction and plotted against concentration of test compound. EC50 values (where EC50 is the concentration producing 50% of the maximum relaxation to the test compound) were interpolated from these plots.

[4] = system: New Zealand White rabbits; test: Electroretinogram (ERG) in ET-1 induced ischemia; conditions: after ET-1 treatment; 0.5 mg (equivalent)/eye IVT
Protocol: Twenty adult male New Zealand Albino rabbits weighing 2-2.5 Kg were used for the experiments. The animals were divided in two groups for the specific treatment chosen. The experimental procedures were conform to those of the Association for Research in Vision and Ophthalmology Resolution on the use of animals and in agreement with the Good Laboratory Practice for the use of animals and were conducted upon authorization of Italian regulation on protection of animals used for experimental and other scientific purpose (DM 116/1992) as well as with the European Union Regulations (OJ of ECL 358/1, Dec. 12, 1986). The rabbits were kept in individual cages, food and water was provided ad libitum. […]
The Electroretinogram (ERG) was performed in basal condition (T0), before the start of drug treatment (T2) and at the end of drug treatment (T6). […] The eyes were dilated by topical application of tropicamide (1%), adapted to darkness for at least 2 hours, and standard ERGs recorded in both eyes using corneal electrodes. […] The ERG signals were recorded using Retimax (CSO, Florence, Italy). The dark-adapted scotopic response (rod response) and scotopic flash response (photopic erg cone), were recorded. […] An average of three separate ERGs was determined for each eye. The amplitude (uV) of a- and b-waves were calculated for each step. […]

CC1(C)O[C@@H]2C[C@H]3[C@@H]4C[C@H](F)C5=CC(=O)C=C[C@]5(C)[C@@]4(F)[C@@H](O)C[C@]3(C)[C@]2(C(=O)CO)O1 [FC, Fluocinolone acetonide]
TNFα content in aqueous humor (TNFα): 20.76 ± 1.74 pg/mL
IOP ([1]; ET-1, 0.5 mg (equivalent)/eye IVT given at T2): 13.00 ± 2.83 mmHG
IOP ([1]; I week, 0.5 mg (equivalent)/eye IVT, ET-1 ischemia): 15.50 ± 0.71 mmHG
IOP ([1]; II week, 0.5 mg (equivalent)/eye IVT, ET-1 ischemia): 19.00 ± 0.00 mmHG
IOP ([1]; III week, 0.5 mg (equivalent)/eye IVT, ET-1 ischemia): 19.00 ± 1.41 mmHG
IOP ([1]; IV week, 0.5 mg (equivalent)/eye IVT, ET-1 ischemia): 20.80 ± 0.71 mmHG
IOP ([1]; V week, 0.5 mg (equivalent)/eye IVT, ET-1 ischemia): 22.20 ± 0.00 mmHG
IOP ([1]; VI week, 0.5 mg (equivalent)/eye IVT, ET-1 ischemia): 21.10 ± 0.00 mmHG
IOP ([1]; basal, 0.5 mg (equivalent)/eye IVT given at T2): 13.50 ± 0.17 mmHG
IL6 content in aqueous humor (IL-6): 16.82 ± 0.98 pg/mL
VEGF content in aqueous humor (VEGF): 114.58 ± 5.61 pg/mL
ET-1 induced morphological changes of retinal tissue (retinal tissue): not effective
Resistence Index (ophthalmic artery; After 2 weeks (before drug instillation, T2)): 0.45 ± 0.06
Resistence Index (ophthalmic artery; After 6 weeks (end of drug treatment), 0.5 mg (equivalent)/eye IVT): 0.60 ± 0.04
Resistence Index (ophthalmic artery; Basal): 0.45 ± 0.06
inhibition of VEGF-induced leakage [2]: 86.1%
IOP compared to compound (1) at 42.4 μg/eye (FIG. 4) (Brown Norway rats; 25 μg/eye intravitreal): increase in IOP
IOP increase (Brown Norway rats; 25 μg/eye intravitreal): 4 mm Hg
IOP increase (Brown Norway rats; 50 μg/eye intravitreal): 3 mm Hg
IOP increase after two weeks (Brown Norway rats; 25 and 50 μg/eye intravitreal, two weeks after injection): maintained
EC50 (concentration producing 50% of the maximum relaxation) [3]: no effect
Photopic erg cone (amplitude) [4]: 136.34 ± 11.98 μV
